Assay results as given in patent US20240217964A1, “QUINUCLIDINONE ANALOGUES AS ANTICANCER AGENTS” (Newave Pharmaceutical Inc., priority 2021, published 2024).

How the values were obtained:
[1] = tested on: RS4;11-G101V cell line; assay: In vitro anti-proliferation assay (ATPlite) in RS4;11 with G101V mutation; format: cell-based; settings: about 72 hours incubation
Protocol: (§1) Cell antiproliferation was assayed by PerkinElmer ATPlite™ Luminescence Assay System. Briefly, the various test cancer cell lines were plated at a density of about 1×10^4 cells per well in Costar 96-well plates, and were incubated with different concentrations of compounds for about 72 hours in medium supplemented with 5% FBS or 10% normal human serum(NHS). One lyophilized substrate solution vial was then reconstituted by adding 5 mL of substrate buffer solution, and was agitated gently until the solution was homogeneous. About 50 μL of mammalian cell lysis solution was added to 100 μL of cell suspension per well of a microplate, and the plate was shaken for about five minutes in an orbital shaker at ˜700 rpm. This procedure was used to lyse the cells and to stabilize the ATP. Next, 50 μL substrate solution was added to the wells and microplate was shaken for five minutes in an orbital shaker at ˜700 rpm. Finally, the luminescence was measured by a PerkinElmer TopCount® Microplate Scintillation Counter. Such assays, carried out with a range of doses of test compounds, allowed the determination of the cellular anti-antiproliferative IC50 of the compounds of the present invention. The following table lists the IC50 values of certain compounds of the invention.
The following table lists the IC50 values of the in vitro anti-proliferation assay in RS4;11-G101V cell line.

[2] = tested on: DB; assay: In vitro anti-proliferation assay (ATPlite) in p53 mutant cell line DB; format: cell-based; settings: Mutation R248Q, about 72 hours incubation
Protocol: as §1
(§2) The following table lists the IC50 values of another in vitro anti-proliferation assay in different p53 mutant cell lines.

[3] = tested on: SUP-T1; assay: In vitro anti-proliferation assay (ATPlite) in p53 mutant cell line SUP-T1; format: cell-based; settings: Cell line SUP-T1, Mutation R273H, about 72 hours incubation
Protocol: as §1, §2

[4] = tested on: CEM(R248Q); assay: In vitro anti-proliferation assay (ATPlite) in p53 mutant cell line CEM(R248Q); format: cell-based; settings: Mutation R175H, about 72 hours incubation
Protocol: as §1, §2

[5] = tested on: KASUMI-1; assay: In vitro anti-proliferation assay (ATPlite) in p53 mutant cell line KASUMI-1; format: cell-based; settings: Cell line KASUMI-1, Mutation R248Q, about 72 hours incubation
Protocol: as §1, §2

[6] = Mice PK study; format: in vivo; settings: CD-1 mouse
Protocol: The pharmacokinetics of compounds were evaluated in CD-1 mouse via Intravenous and Oral Administration. The IV dose was administered as a slow bolus in the Jugular vein, and oral doses were administered by gavage. The formulation for IV dosing was 5% DMSO in 20% HPBCD in water, and the PO formulation was 2.5% DMSO, 10% EtOH, 20% Cremphor EL, 67.5% D5W. The PK time point for the IV arm was 5, 15, 30 min, 1, 2, 4, 6, 8, 12, 24 hours post dose, and for PO arm was 15, 30 min, 1, 2, 4, 6, 8, 12, 24 hours post dose. Approximately 0.03 mL blood was collected at each time point. Blood of each sample was transferred into plastic micro centrifuge tubes containing EDTA-K2 and collect plasma within 15 min by centrifugation at 4000 g for 5 minutes in a 4° C. centrifuge. Plasma samples were stored in polypropylene tubes. The samples were stored in a freezer at −75±15° C. prior to analysis. Concentrations of compounds in the plasma samples were analyzed using a LC-MS/MS method. WinNonlin (Phoenix™, version 6.1) or other similar software was used for pharmacokinetic calculations. The following pharmacokinetic parameters were calculated, whenever possible from the plasma concentration versus time data: IV administration: Co, CL, Vd, T1/2, AUCinf, AUClast, MRT, Number of Points for Regression; PO administration: Cmax, Tmax, T1/2, AUCinf, AUClast, F %, Number of Points for Regression. The pharmacokinetic data was described using descriptive statistics such as mean, standard deviation.

`COCC1(CO)C(=O)C2CCN1CC2` (centres unmarked) [APR-246, reference compound] showed an IC50 [1] of 1760 nM.

`COC[C@]1(CO)C(=O)[C@@H]2CC[N@@]1[C@@H](C)C2` [Example 27, (1S,2R,4R,6S)-2-(hydroxymethyl)-2-(methoxymethyl)-6-methylquinuclidin-3-one] showed an IC50 [2] of 3300 nM, an IC50 [3] of 3300 nM and an IC50 [4] of 1600 nM. It also gave an IC50 [5] of 2600 nM.

In the case of `COC[C@@]1(CO)C(=O)C2CCN1CC2` [ARP-246-S, (S)-2-(hydroxymethyl)-2-(methoxymethyl)quinuclidin-3-one, reference compound], the IC50 ([2]; Homo sapiens) is reported as 3000 nM, the IC50 ([3]; Homo sapiens) is reported as 4800 nM and the IC50 [4] is reported as 495 nM. It also gave an IC50 ([5]; Homo sapiens) of 1000 nM.

`COC[C@@]1(CO)C(=O)[C@@H]2CC[N@@]1[C@@H](C)C2` [Example 18, (1S,2S,4R,6S)-2-(hydroxymethyl)-2-(methoxymethyl)-6-methylquinuclidin-3-one] showed an IC50 [2] of 2900 nM, an IC50 [3] of 2600 nM and an IC50 [1] of 1800 nM. It also gave an IC50 [4] of 690 nM and an IC50 [5] of 2000 nM.

For `COC[C@]1(CO)C(=O)[C@H]2CC[N@]1[C@H](C)C2` [Example 17, (1R,2R,4S,6R)-2-(hydroxymethyl)-2-(methoxymethyl)-6-methylquinuclidin-3-one], the IC50 [2] was 3700 nM, the IC50 [3] was 2100 nM and the IC50 [1] was 730 nM. It also gave an IC50 [4] of 560 nM, an IC50 [5] of 1000 nM and a Bioavailabilty ([6]; Oral, 100 mpk) of 79%. For the same compound, the AUClas ([6]; Oral, 100 mpk, plasma) was 26,093 h*ng/ml and the “bioavailability (in words)” value ([6]; oral) was “excellent bioavailable”.

In the case of `COC[C@@]1(CO)C(=O)[C@H]2CC[N@]1[C@H](C)C2` [Example 28, (1R,2S,4S,6R)-2-(hydroxymethyl)-2-(methoxymethyl)-6-methylquinuclidin-3-one], the IC50 [2] is reported as 18400 nM, the IC50 [3] is reported as 12600 nM and the IC50 [4] is reported as 4500 nM. It also gave an IC50 [5] of 7500 nM.
